Results: US20080064668A1, “1,3-Diacylated, 26,27-Alkyl/Haloakyl Vitamin D3 Compounds and Methods of Use Thereof” (BioXell S.p.A., priority 2003, published 2008)

How the values were obtained:
[1] = Determination of Maximum Tolerated Dose (MTD)
Experimental: The maximum tolerated dose of the vitamin D3 compounds of the invention were determined in eight week-old female C57BL/6 mice (3 mice/group) dosed orally (0.1 ml/mouse) with various concentrations of Vitamin D3 analogs daily for four days. Analogs were formulated in miglyol for a final concentration of 0.01, 0.03, 0.1 0.3, 1, 3, 10, 30, 100 and 300 μg/kg when given at 0.1 ml/mouse p.o. daily. Blood for serum calcium assay was drawn by tail bleed on day five, the final day of the study.

[2] = system: ECV; assay: Proliferation assay using bladder cancer cell lines, ECV; type: cell-based, human; conditions: Homo sapiens; 72 h culture, CyQuant proliferation assay
[3] = system: RT112; assay: Proliferation assay using bladder cancer cell lines, RT112; type: cell-based, human; conditions: Homo sapiens, RT-112, 72 h, 72 h culture, CyQuant proliferation assay
Experimental: (§1) Bladder cancer cell lines (T24, RT112, HT1376 and RT4 are human bladder cancer cell lines; NHEK are normal human keratinocytes) were obtained from the European Collection of Cell Cultures (Salisbury, UK). Cells were plated at 3×10^3 per well, in flat bottomed 96-well plates in 100 μl of DMEM medium containing: 5% Fetal Clone I, 50 μg/l gentamicin, 1 mM sodium pyruvate and 1% non-essential amino acids. After culturing for 24 h at 37° C. in 5% CO2, to allow cells to adhere to the plates, VDR ligands (compounds (2), (4), (5) and other vitamin D3 analogs as shown in Table 4) were added at concentrations ranging from 100 μM to 0.3 μM in 100 μl of above-mentioned complete medium. After a further 72 h of culture, cell proliferation was measured using a fluorescence-based proliferation assay kit. (CyQuant Cell Proliferation Assay Kit, Molecular Probes, Eugene, Oreg., USA). The IC50 was calculated from the regression curve of the titration data.

[4] = system: HT 1376; assay: Proliferation assay using bladder cancer cell lines, HT1376; type: cell-based, human; conditions: Homo sapiens, HT-1376; 72 h culture, CyQuant proliferation assay
Experimental: as §1

[5] = system: non-obese (NOD)/Lt mice; assay: Inhibition of Type 1 Diabetes development by VDR ligand administration; type: in vivo; conditions: for mice diabetic by 27 weeks of age: vehicle controls about 70%
Experimental: The non-obese (NOD)/Lt mice used for the experiments were purchased from Charles River Laboratories (Calco, Italy). All mice were kept under specific pathogen-free conditions. Glucose levels in the tail venous blood were quantified using a EUROFlash (Lifescan, Issy les Moulineaux, France). A diagnosis of diabetes was after two sequential glucose measurements higher than 200 mg/dl.
1,3-Di-O-acetyl-1,25-dihydroxy-16,23Z-diene-26,27-hexafluoro-19-nor-cholecalciferol (2) was dissolved in ethanol (1 mg/ml) and then diluted in miglyol 812. […]

Compound: CC(=O)OC1C/C(=C/C=C2\CCC[C@]3(C)C(C(C)C/C=C\C(O)(C(F)(F)F)C(F)(F)F)=CCC23)C[C@@H](OC(C)=O)C1 (stereo partly shown) [Compound (2), 1,3-Di-O-acetyl-1,25-dihydroxy-16,23Z-diene-26,27-hexafluoro-19-nor-cholecalciferol]
- MTD at 4 days ([1]; female, C57BL/6, mouse, in vivo, po): 0.1 µg/kg
- MTD relative to compound (1) ([1]; mice, MTD of (2) versus parent (1)): more than 300 times
- MTD compared with the corresponding dihydroxy (parent) compound ([1]; versus (1) or (3)): significantly higher
- IC50 [2]: 55 µM
- IC50 [3]: 1 µM
- IC50 [4]: 100 µM
- Percent Type 1 Diabetes Mellitus incidence ([5]; 0.1 ug/kg p.o., week 8): 2%
- Percent Type 1 Diabetes Mellitus incidence ([5]; 0.1 ug/kg p.o., week 12): 2%
- Percent Type 1 Diabetes Mellitus incidence ([5]; 0.1 ug/kg p.o., week 13): 2%
- Percent Type 1 Diabetes Mellitus incidence ([5]; 0.1 ug/kg p.o., week 14): 2%
- Percent Type 1 Diabetes Mellitus incidence ([5]; 0.1 ug/kg p.o., week 15): 2%
- Percent Type 1 Diabetes Mellitus incidence ([5]; 0.1 ug/kg p.o., week 16): 2%
- Percent Type 1 Diabetes Mellitus incidence ([5]; 0.1 ug/kg p.o., week 17): 10%
- Percent Type 1 Diabetes Mellitus incidence ([5]; 0.1 ug/kg p.o., week 18): 10%
- Percent Type 1 Diabetes Mellitus incidence ([5]; 0.1 ug/kg p.o., week 19): 10%
- Percent Type 1 Diabetes Mellitus incidence ([5]; 0.1 ug/kg p.o., week 20): 10%
- Percent Type 1 Diabetes Mellitus incidence ([5]; 0.1 ug/kg p.o., week 21): 20%
- Percent Type 1 Diabetes Mellitus incidence ([5]; 0.1 ug/kg p.o., week 22): 30%
- Percent Type 1 Diabetes Mellitus incidence ([5]; 0.1 ug/kg p.o., week 23): 30%
- Percent Type 1 Diabetes Mellitus incidence ([5]; 0.1 ug/kg p.o., week 24): 40%
- Percent Type 1 Diabetes Mellitus incidence ([5]; 0.1 ug/kg p.o., week 25): 40%
- Percent Type 1 Diabetes Mellitus incidence ([5]; 0.1 ug/kg p.o., week 26): 40%
- Percent Type 1 Diabetes Mellitus incidence ([5]; 0.1 ug/kg p.o., week 27): 40%
- mice diabetic by 27 weeks of age ([5]; 0.1 mg/Kg per os 5×/week from 8 to 16 weeks of age): 30%
- mice diabetic by 27 weeks of age ([5]; 0.2 mg/Kg per os 5×/week from 8 to 16 weeks of age): 40%
- Percent Type 1 Diabetes Mellitus incidence ([5]; 0.2 mg/kg p.o., week 8): 1%
- Percent Type 1 Diabetes Mellitus incidence ([5]; 0.2 mg/kg p.o., week 12): 1%
- Percent Type 1 Diabetes Mellitus incidence ([5]; 0.2 mg/kg p.o., week 13): 1%
- Percent Type 1 Diabetes Mellitus incidence ([5]; 0.2 mg/kg p.o., week 14): 1%
- Percent Type 1 Diabetes Mellitus incidence ([5]; 0.2 mg/kg p.o., week 15): 1%
- Percent Type 1 Diabetes Mellitus incidence ([5]; 0.2 mg/kg p.o., week 16): 1%
- Percent Type 1 Diabetes Mellitus incidence ([5]; 0.2 mg/kg p.o., week 17): 1%
- Percent Type 1 Diabetes Mellitus incidence ([5]; 0.2 mg/kg p.o., week 18): 1%
- Percent Type 1 Diabetes Mellitus incidence ([5]; 0.2 mg/kg p.o., week 19): 1%
- Percent Type 1 Diabetes Mellitus incidence ([5]; 0.2 mg/kg p.o., week 20): 10%
- Percent Type 1 Diabetes Mellitus incidence ([5]; 0.2 mg/kg p.o., week 21): 10%
- Percent Type 1 Diabetes Mellitus incidence ([5]; 0.2 mg/kg p.o., week 22): 10%
- Percent Type 1 Diabetes Mellitus incidence ([5]; 0.2 mg/kg p.o., week 23): 20%
- Percent Type 1 Diabetes Mellitus incidence ([5]; 0.2 mg/kg p.o., week 24): 20%
- Percent Type 1 Diabetes Mellitus incidence ([5]; 0.2 mg/kg p.o., week 25): 20%
- Percent Type 1 Diabetes Mellitus incidence ([5]; 0.2 mg/kg p.o., week 26): 30%
- Percent Type 1 Diabetes Mellitus incidence ([5]; 0.2 mg/kg p.o., week 27): 30%
- incidence of disease compared to controls ([5]; NOD/Lt female mice, 0.1 or 0.2 mg/Kg per os): significantly lower
